# pIC50: −log10 of the molar value.
# System: 439559-082-T-J2-PDC spheroids viability
# Assay: Anticancer human tumor 439559-082-T-J2-PDC patient-derived colon adenocarcinoma cell line growth inhibition [GQUAD]
# Conditions: for pIC50: curve of first compound; for viability, T/C: stronger effect = lower value
# Description: DNA G-quadruplex Stabilizer Agents in Combinations in Complex Spheroids
# A high-throughput screen of multi-cell type tumor spheroids was designed to identify active combinations of DNA G-quadruplex stabilizer agents and targeted small molecules. Complex spheroids include a stromal component modeled by human endothelial cells (HUVEC) and fibroblasts modeled by human mesenchymal stem cells (MSCs). The concentration ranges selected for each drug and investigational agent were based upon clinically achievable concentrations if the clinical Cmax of the agent was known.
# Compounds. The drugs and investigational agents: pidnarulex (CX-5461; NSC782164), APTO-253 (NSC789042), BRACO-19 (NSC847499), peposertib (NSC802822), ceralasertib (NSC780249), elimusertib (NSC800525), camonsertib (NSC841442), AZD-1390 (NSC803789), olaparib (NSC753686), talazoparib (NSC767125), ART-558 (NSC835418), sotorasib (NSC818433), MRTX-1133 (NSC836407), SN-38 (NSC673596), topotecan (NSC609699), etoposide (NSC141540), doxorubicin (NSC123127), gemcitabine (NSC613327), 5-fluorouracil (NSC19893), paclitaxel (NSC125973), vemurafenib (NSC761431), panobinostat (NSC761190), R-306465 (JNJ-16241199; NSC773264), adavosertib (NSC754352), TP-3654 (NSC805149), carboplatin (NSC241240), KSQ-4279 (NSC840948), and staurosporine (NSC755774) were obtained from the National Cancer Institute (NCI) Developmental Therapeutics Program Chemical Repository (34). The FDA-approved anticancer drug set is available from the NCI Developmental Therapeutics Program. […] The stock solutions were prepared in dimethyl sulfoxide (DMSO, Sigma-Aldrich, St. Louis, MO, cat. D2650) at 800-fold the tested concentration and stored at -70 degrees C prior to their use. All drugs and investigational agents were tested over a range starting from a high concentration at or near the clinical Cmax and decreasing in half-log increments. If the clinical Cmax for an agent had not been determined, the highest concentration tested was 10 microM.
# 2.3 Cell Culture. All cells were maintained in an incubator at 37 degrees C and 5% CO2 with 95% humidity. The PDC lines were cultured according to standard operating procedures established by the NCI PDMR. All PDCs were thawed and cultured in Matrigel-coated flasks prepared with a working solution of 1X Ham's F-12 nutrient mix, without supplementation (Invitrogen, cat. 11765054), 100 U/mL penicillin-streptomycin (Invitrogen, cat. 15140122), and 2.5% Matrigel (Corning Inc., cat. 354248) for the first three passages. The 857933-349-R-J2-PDC line was cultured in 6C/Colon 1B media, which includes advanced DMEM/F-12 (Thermo Fisher Scientific, cat. 12634028), 10 mM HEPES (Thermo Fisher Scientific, cat. 15630080), 1X GlutaMAX supplement (Thermo Fisher Scientific, cat. 35050061), 0.1 mg/mL primocin (InvivoGen, cat. ant-pm-2), 10% defined fetal bovine serum, heat inactivated (HyClone Laboratories Inc., cat. SH30070.03HI), 50% L-WRN conditioned media (ATCC, cat. CRL-3276), 1.25 mM N-Acetyl-L-cysteine (Sigma-Aldrich, cat. A9165), 10 mM nicotinamide (Sigma-Aldrich, cat. N0636), 1X B-27 supplement (Thermo Fisher Scientific, cat. 17504044), 1X N-2 supplement (Thermo Fisher Scientific, cat. 17502048), 10 microM Y-27632 dihydrochloride (Tocris Bioscience, cat. 1254), and 50 ng/mL human EGF recombinant protein (Thermo Fisher Scientific, cat. PHG0311). The 485176-168-R4-J1-PDC line was cultured in Panc media, which includes all 6C/Colon 1B media components plus 100 ng/mL human FGF-10 (Thermo Fisher Scientific, cat. 100-26), 500 nM SB-431542 (Selleckchem, cat. S1067), and gastrin (Tocris, cat. 3006).
# […]
# [1] = second compound 0.0316 µM, first compound 0.0316 µM
# [2] = second compound 0.0316 µM, first compound 0.316 µM
# [3] = second compound 0.1 µM, first compound 0.0316 µM
# [4] = second compound 0.1 µM, first compound 0.316 µM
# [5] = second compound 0.316 µM, first compound 0.0316 µM
# [6] = second compound 0.316 µM, first compound 0.316 µM
# [7] = second compound 1 µM, first compound 0.0316 µM
# [8] = second compound 1 µM, first compound 0.316 µM
# [9] = second compound 3.16 µM, first compound 0.0316 µM
# [10] = second compound 3.16 µM, first compound 0.316 µM
# [11] = second compound 10 µM, first compound 0.0316 µM
# [12] = second compound 10 µM, first compound 0.316 µM
# 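Further: spheroids exposed to the agents for 7 days before readout.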
# 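Wherever viability, T/C is given: percent of luminescence signal in DMSO vehicle wells taken as 100% viability.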
smiles,measurement,setting,value
C=CC(=O)N1CCN(c2nc(=O)n(-c3c(C)ccnc3C(C)C)c3nc(-c4c(O)cccc4F)c(F)cc23)C(C)C1 (centres undefined) + CN(C)c1ccc(Nc2c3ccc(NC(=O)CCN4CCCC4)cc3nc3cc(NC(=O)CCN4CCCC4)ccc23)cc1,pIC50,second compound 0.0316 µM,< 5.00
same,pIC50,second compound 0.1 µM,< 5.00
same,pIC50,second compound 0.316 µM,< 5.00
same,pIC50,second compound 1 µM,< 5.00
same,pIC50,second compound 3.16 µM,< 5.00
same,pIC50,second compound 10 µM,< 5.00
same,"viability, T/C",[1],103%
same,"viability, T/C","second compound 0.0316 µM, first compound 0.1 µM",91.4%
same,"viability, T/C",[2],93.6%
same,"viability, T/C","second compound 0.0316 µM, first compound 1 µM",104%
same,"viability, T/C","second compound 0.0316 µM, first compound 3.16 µM",111%
same,"viability, T/C","second compound 0.0316 µM, first compound 10 µM",95.4%
same,"viability, T/C",[3],105%
same,"viability, T/C","second compound 0.1 µM, first compound 0.1 µM",92.2%
same,"viability, T/C",[4],104%
same,"viability, T/C","second compound 0.1 µM, first compound 1 µM",97.6%
same,"viability, T/C","second compound 0.1 µM, first compound 3.16 µM",111%
same,"viability, T/C","second compound 0.1 µM, first compound 10 µM",104%
same,"viability, T/C",[5],104%
same,"viability, T/C","second compound 0.316 µM, first compound 0.1 µM",102%
same,"viability, T/C",[6],91.6%
same,"viability, T/C","second compound 0.316 µM, first compound 1 µM",114%
same,"viability, T/C","second compound 0.316 µM, first compound 3.16 µM",106%
same,"viability, T/C","second compound 0.316 µM, first compound 10 µM",110%
same,"viability, T/C",[7],112%
same,"viability, T/C","second compound 1 µM, first compound 0.1 µM",96.3%
same,"viability, T/C",[8],105%
same,"viability, T/C","second compound 1 µM, first compound 1 µM",97.6%
same,"viability, T/C","second compound 1 µM, first compound 3.16 µM",120%
same,"viability, T/C","second compound 1 µM, first compound 10 µM",108%
same,"viability, T/C",[9],94.8%
same,"viability, T/C","second compound 3.16 µM, first compound 0.1 µM",103%
same,"viability, T/C",[10],108%
same,"viability, T/C","second compound 3.16 µM, first compound 1 µM",108%
same,"viability, T/C","second compound 3.16 µM, first compound 3.16 µM",114%
same,"viability, T/C","second compound 3.16 µM, first compound 10 µM",108%
same,"viability, T/C",[11],103%
same,"viability, T/C","second compound 10 µM, first compound 0.1 µM",96%
same,"viability, T/C",[12],96.8%
same,"viability, T/C","second compound 10 µM, first compound 1 µM",106%
same,"viability, T/C","second compound 10 µM, first compound 3.16 µM",109%
same,"viability, T/C","second compound 10 µM, first compound 10 µM",100%
CC[C@@]1(O)C(=O)OCc2c1cc1n(c2=O)Cc2cc3c(CN(C)C)c(O)ccc3nc2-1 + CN(C)c1ccc(Nc2c3ccc(NC(=O)CCN4CCCC4)cc3nc3cc(NC(=O)CCN4CCCC4)ccc23)cc1,pIC50,second compound 0.0316 µM,< 6.50
same,pIC50,second compound 0.1 µM,< 6.50
same,pIC50,second compound 0.316 µM,< 6.50
same,pIC50,second compound 1 µM,< 6.50
same,pIC50,second compound 3.16 µM,< 6.50
same,pIC50,second compound 10 µM,< 6.50
same,"viability, T/C","second compound 0.0316 µM, first compound 0.000999 µM",102%
same,"viability, T/C","second compound 0.0316 µM, first compound 0.00316 µM",94.6%
same,"viability, T/C","second compound 0.0316 µM, first compound 0.00999 µM",104%
same,"viability, T/C",[1],106%
same,"viability, T/C","second compound 0.0316 µM, first compound 0.0999 µM",90.2%
same,"viability, T/C",[2],76%
same,"viability, T/C","second compound 0.1 µM, first compound 0.000999 µM",108%
same,"viability, T/C","second compound 0.1 µM, first compound 0.00316 µM",111%
same,"viability, T/C","second compound 0.1 µM, first compound 0.00999 µM",102%
same,"viability, T/C",[3],85.7%
same,"viability, T/C","second compound 0.1 µM, first compound 0.0999 µM",91.8%
same,"viability, T/C",[4],84%
same,"viability, T/C","second compound 0.316 µM, first compound 0.000999 µM",123%
same,"viability, T/C","second compound 0.316 µM, first compound 0.00316 µM",97.1%
same,"viability, T/C","second compound 0.316 µM, first compound 0.00999 µM",101%
same,"viability, T/C",[5],100%
same,"viability, T/C","second compound 0.316 µM, first compound 0.0999 µM",87.9%
same,"viability, T/C",[6],84.7%
same,"viability, T/C","second compound 1 µM, first compound 0.000999 µM",114%
same,"viability, T/C","second compound 1 µM, first compound 0.00316 µM",99%
same,"viability, T/C","second compound 1 µM, first compound 0.00999 µM",88.5%
same,"viability, T/C",[7],101%
same,"viability, T/C","second compound 1 µM, first compound 0.0999 µM",91.1%
same,"viability, T/C",[8],80.1%
same,"viability, T/C","second compound 3.16 µM, first compound 0.000999 µM",99.8%
same,"viability, T/C","second compound 3.16 µM, first compound 0.00316 µM",92.6%
same,"viability, T/C","second compound 3.16 µM, first compound 0.00999 µM",102%
same,"viability, T/C",[9],93.2%
same,"viability, T/C","second compound 3.16 µM, first compound 0.0999 µM",103%
same,"viability, T/C",[10],91.9%
same,"viability, T/C","second compound 10 µM, first compound 0.000999 µM",102%
same,"viability, T/C","second compound 10 µM, first compound 0.00316 µM",95%
same,"viability, T/C","second compound 10 µM, first compound 0.00999 µM",100%
same,"viability, T/C",[11],107%
same,"viability, T/C","second compound 10 µM, first compound 0.0999 µM",85.8%
same,"viability, T/C",[12],88.5%

# Reference: PubChem BioAssay AID2060510 (Molecular Pharmacology Branch, DTP, NCI, 2025)
